Source: patent US12221494B2, “Short synthetic peptides and their uses for treating retinal degenerative diseases and/or tissue injuries” (MacKay Memorial Hospital, priority 2019, dated 2025)
Ends that are not written are not given here.

Assays:
Neuro-2a cells = assay: Glutamate-induced Neuro-2a cell death (LDH release); type: cell-based, mouse; conditions: glutamate-induced cell death
Method: Neuro-2a cells were seeded in 48-well culture plates (1.5×10^5 cells/well) for 24 h, and then cultured in 0.5 ml fresh 2% FBS-DMEM medium containing 20 μM of the present peptide (7 μg of 6-mer in 0.5 ml medium) for further 4 h. Subsequently, 100 mM glutamate (from 1 M stock and PBS as solvent) was added to cells for further 6 h. Glutamate-induced cell death was quantitatively assessed by measuring lactate dehydrogenase (LDH) activity released into the culture medium by damaged cells. LDH activity was measured using PicoProbe™ LDH-Cytotoxicity Fluorometric Assay Kit (Catalog #K314-500; BioVision) according to the instruction manuals. LDH activity was estimated using an automated microplate reader (UVmax; Molecular Devices, San Francisco, CA) by measuring the fluorescent product (Ex/Em=535/587 nm).
Briefly, cells were pretreated with the designated peptide (i.e., any of SEQ ID NOs: 2 to 11) for 4 h and then treated with 100 mM glutamate for 6 h. The cell death was detected by a commercial lactate dehydrogenase (LDH) Cytotoxicity Assay Kit. Results are depicted in FIG. 1.

STAT3 = assay: Western blot of STAT3 phosphorylation in C2C12 cells; type: cell-based, mouse; conditions: C2C12 myoblast cells, 5 to 20 min after stimulation
Method: Cell lysis, fractionation, and SDS-PAGE were conducted in accordance with procedures described previously (Yang Y C et al., BMC Cancer 2007; 7:216). Antibodies used in this study were for Phospho-Stat3 and STAT3 (1:1000-fold dilution). Proteins of interest were detected using the appropriate IgG-HRP secondary antibody (Santa Cruz Biotechnology) and ECL reagent (Amersham Biosciences).

survivin mRNA = assay: Real-time qPCR of survivin mRNA in C2C12 cells; type: cell-based, mouse; conditions: C2C12 cells in low serum media, 20 μM peptide, 6 h
Method: (§1) Total RNA was extracted from cells using TRIzol (Invitrogen). Synthesis of cDNA was performed with 1 μg of total RNA at 50° C. for 50 min using oligo(dT) primers and reverse transcriptase (Superscript III; Invitrogen). Briefly, quantification of cDNA was performed in the LightCycler (Roche, Mannheim, Germany) using the DNA Master SYBR Green I kit (Roche) with the following cycling conditions: initial denaturation at 95° C. for 10 min, followed by 40 cycles at 95° C. for 10 s, 60° C. for 10 s, and 72° C. for 10 s and a 5-min terminal incubation at 72° C. The data were calculated with AACt. The expression was then normalized against the expression of glyceraldehyde-3-phosphate dehydrogenase (GAPDH). The PCR primers were mouse Survivin sense, 5′-[…]-3′ (SEQ ID NO: 27), anti-sense, 5′-[…]-3′ (SEQ ID NO: 28) (accession number: NM_001012273.1; PCR product: 136 bp); mouse GAPDH sense, 5′-[…]-3′ (SEQ ID NO: 29), anti-sense, 5′-[…]-3′ (SEQ ID NO: 30) (NM_001289726.1; 149 bp). For analysis rabbit inflammatory gene expression, The PCR primers were rabbit TNF-αsense, 5′-[…]-3′ (SEQ ID NO: 31), anti-sense, 5′-[…]-3′ (SEQ ID NO: 32) (accession number: NM 001082263.1); rabbit IL-1βsense, 5′-[…]-3′(SEQ ID NO: 33), anti-sense, 5′-[…]-3′ (SEQ ID NO: 34) (NM 001082201.1); rabbit GAPDH sense, 5′-[…]-3′ (SEQ ID NO: 35), anti-sense, 5′-[…]-3′ (SEQ ID NO: 36) (accession number:NM 001082253.1). The cycle threshold (Ct) values of the PCR product and a GAPDH (Glyceraldehyde 3-phosphate dehydrogenase) control mRNA were used to calculate relative quantities of mRNA.
Similar to the approach in Example 1.2.1, the expression level of survivin mRNA in C2C12 cells was used as an indicator for the function of the 6-mer variants in Tables 3 to 5. Briefly, C2C12 cells in low serum media were treated with 20 μM the 6-mer variants for 6 h. […] The results also confirmed that alanine substation at the glutamic acid (E) residues would severely impair the 6-mer activity.

[1] = tested on: Sprague-Dawley rats, retinal ischemia/reperfusion (I/R) injury; assay: TUNEL staining of I/R-injured rat retina (20 h); type: in vivo; conditions: for Number of TUNEL-positive cells in retina: subconjunctival injection 1 mM 4 h before I/R, 20 hours after I/R injury, Vehicle + I/R 27.2 ± 2.7; for I/R-induced retinal cell apoptosis (TUNEL staining), in words: subconjunctival injection prior to I/R, 20 h reperfusion
Method: Experimental procedures were approved by the Mackay Memorial Hospital Review Board (Taiwan, R.O.C.). All surgeries were performed under aseptic conditions. Adult 10-week-old male Sprague-Dawley rats (initial body weight=312±11 g) were anesthetized by an intraperitoneal injection of xylazine (10 mg/kg). Peptide was dissolved in 0.85% normal saline to 1 mM and delivered by the subconjunctival injection of 100 μL peptide through a 31-Gneedle with a micro-syringe before the induction of I/R. Normal saline was as a vehicle control. Rat I/R was performed after peptide or vehicle injection for 4 h. Pupils were dilated with 0.5% tropicamide and 0.5% phenylephrine. Body temperature was maintained at 37° C. using a heating blanket After dilation of the pupil, the anterior chamber of the right eye was cannulated with a 27-gauge needle connected to a physiological saline reservoir. The intraocular pressure (IOP) was raised to 110 mmHg by keeping the reservoir at 150 cm above the eye, and retinal ischemia was confirmed by observing whitening of the iris and the loss of the red reflex of the retina. After 90 min of ischemia, the cannulating needle was withdrawn and the IOP was returned to normal pressure, resulting in recovery of the blood supply from the retinal artery and reperfusion injury induced. The reperfusion was evident by the return of the red reflex. Corneal analgesia was achieved using 1 or 2 drops of 0.4% oxybuprocaine hydrochloride, and Ofloxacin ophthalmic gel (0.3%) was applied topically to the eye before and after the procedure. Only the right eye was used in all experiments. A sham procedure was performed at left eye served as an intra-animal control.
After I/R for 20 h, rats (n=6 in each group) were euthanized by an overdose of pentobarbital. Enucleated eyeballs were fixed in 4% PFA for 24 h at 4° C. Fixed retinal tissues were embedded in paraffin. To identify apoptosis of retinal cells, 5 μm sections thick cut through the optic disc, de-paraffinized, rehydrated, incubatedwith 20 μg/mL proteinase K for 10 min, and immunofluorescence staining of apoptotic cells was performed using a terminal deoxynucleotidyl transferase(TdT)-mediated dUTP nick-end labeling (TUNEL)-based kit (Roche Molecular Biochemicals, Indianapolis, IN) according to the manufacturer's instructions. Nuclei were located by counterstaining with Hoechst 33258 for 7 min Sections were observed under an epifluorescence microscope (Zeiss Axioplan 2 imaging; Zeiss, Oberkochen, Germany) equipped with a charge-coupled device (CCD) camera (Zeiss AxioCam HRm, Zeiss) (×400, 6 fields/sample), and quantification was performed using Axiovert software (Zeiss AxioVision Release 4.8.2, Zeiss). Three sections per eye were averaged and the mean of six eyes was recorded as the representative value for each group.
In this example, the neuroprotective effect of the 6-mer variant peptides on neural retina cells and retinal capillary system was investigated using a rat model of I/R injury described in the “Material and Methods” section. Briefly, 6-mer variant peptide (1 mM, 120 μl) was injected into the subconjunctival space of Sprague-Dawley rats for 4 h before the induction of I/R. Then, I/R injury was induced in rat retinas by increasing the intraocular pressure (IOP) in the eye to 110 mmHg for 90 min, followed by 20 h of reperfusion. Subsequently, the level of retinal cell apoptosis was evaluated using TUNEL staining. In addition, the retinal morphology was analyzed with H&E staining 14 days after the I/R injury. Results are summarized in FIGS. 6 to 10, and Tables 6 to 9.

TNF-α mRNA = assay: Hyperosmotic stress-induced TNF-α gene expression in rabbit corneal epithelial cells (qPCR); type: cell-based; conditions: 20 μM peptide 6 h, then hyperosmotic medium (463 mOsM) 3 h, solvent 12.8-fold
Method: as §1
(§2) Limbal stem epithelial cells (LSEC) were isolated from 6-month-old New Zealand white rabbits and continuously cultivated for 14 days byDMEM/F-12basalmedium based cell-suspension culture to achieve corneal-liked epithelial cell differentiation as previously described (Ho et al., Stem Cells. 2013; 31:1775). […] After 3 h, quantitative real-time PCR was used to estimate HOP-induced Tumor necrosis factor (TNF)-α and nterleukin-1 beta (IL-1β) expressions. […]

IL-1β mRNA = assay: Hyperosmotic stress-induced IL-1β gene expression in rabbit corneal epithelial cells (qPCR); type: cell-based; conditions: 20 μM peptide 6 h, then hyperosmotic medium (463 mOsM) 3 h, solvent 4.5-fold
Method: as §1, §2

[2] = tested on: C57BL/6 mice, dry eye induced in controlled environment chamber (CEC); assay: Dry eye animal model, corneal fluorescein staining; type: in vivo, mouse; conditions: mice 14 days in CEC, then treatment for 4 days
Method: Dry eyes were induced by placing mice in a controlled environment chamber (CEC) for 14 days in accordance with procedures previously described by Barabino et al (IVOS (2005) 46(8), 2766-2771). Mice placed in the CEC were exposed to a condition, in which relative humidity (RH) was maintained at <25%, temperature at 20-22° C., and airflow at about 15 L/min, for 12 hours per day. Control mice were kept in a normal environment (RH>50%, no air flow, temperature of 20-22° C.) for the same duration.
A common artificial tear formulation, 1% carboxymethylcelllulose (CMC) dissolved in balanced salt solution (BSS) was used as the peptide vehicle. Peptide (100 μM, about 0.7 μg peptide in 10 μl eye drop used for treating one eye) or 1% CMC vehicle was topically administered to eyes three times a day. To test whether the present synthetic peptide could exert any therapeutic action on dry eyes, mice were housed at CEC for 14 days without topical treatment, and then were treated with the present peptide for 4 days.
Animals were anesthetized by an intraperitoneal injection of a mixture of zoletil (6 mg/kg) and xylazine (3 mg/kg). Corneal epithelial injury was determined by staining with topical fluorescein (Fluor-I-Strip, Ayerst Laboratories, Philadelphia, PA). Corneal fluorescein staining was examined with a slit-lamp biomicroscope under cobalt blue light and photographed with a digital camera. Dye staining of the cornea was scored in a blinded manner as follows: score 0 for no punctuate staining; score 1 when less than one third of the cornea was stained; score 2 when two thirds or less was stained; and score 3 when more than two thirds was stained (Horwath-Winter J 2013).
Briefly, mice were housed at controlled environment chamber (CEC) for 14 days (set as Day 0) to induce corneal surface disruption. Corneal fluorescein staining was used to estimate the corneal surface injury and the animal with a staining score of 2 (after mice placed at CEC for 14 days) was subjected to peptide treatment. The 6-mer variant peptide formulation for the treatment of DED was described in Methods. […]

NH2-(D-Ser)-Leu-Gly-Ala-Glu-COOH (SLGAE; HELM PEPTIDE1{[dS].L.G.A.E}$$$$V2.0; SMILES CC(C)C[C@H](NC(=O)[C@H](N)CO)C(=O)NCC(=O)N[C@@H](C)C(=O)N[C@@H](CCC(=O)O)C(=O)O) [5-mer dS]
protective effect on Neuro-2a cells (neuroprotective activity), in words (Neuro-2a cells): lacks any significant neuroprotective activity | STAT3 phosphorylation (immunoblot) (STAT3): possessed no such effect

NH2-Ala-Leu-Gly-Ala-Glu-Gln-COOH (ALGAEQ; not fully specified (N-terminus, C-terminus); printed as NH2-Ala-Leu-Gly-Ala-Glu-Gln-COOH) [6-mer Sa]
survivin mRNA induction compared to solvent control (survivin mRNA): 1.7 fold | Number of TUNEL-positive cells in retina [1]: 12.6 ± 1.1 /200 μm | I/R-induced retinal cell apoptosis (TUNEL staining), in words [1]: reduced the retinal cell apoptosis induced by I/R | mRNA expression of TNF-α, in words (TNF-α mRNA): apparently repressed the mRNA expression of TNF-α and IL-1β | mRNA expression of IL-1β, in words (IL-1β mRNA): apparently repressed the mRNA expression of TNF-α and IL-1β

NH2-Ser-Leu-Gly-(D-Ala)-Glu-Gln-COOH (SLGAEQ; HELM PEPTIDE1{S.L.G.[dA].E.Q}$$$$V2.0; SMILES CC(C)C[C@H](NC(=O)[C@@H](N)CO)C(=O)NCC(=O)N[C@H](C)C(=O)N[C@@H](CCC(=O)O)C(=O)N[C@@H](CCC(N)=O)C(=O)O) [6-mer dA]
survivin mRNA induction, in words (survivin mRNA): hamper the survivin gene induction activity significantly | therapeutic effect on corneal fluorescein staining, in words [2]: had no therapeutic effect

NH2-Ser-Leu-Val-Ala-Glu-Gln-COOH (SLVAEQ; not fully specified (N-terminus, C-terminus); printed as NH2-Ser-Leu-Val-Ala-Glu-Gln-COOH) [6-mer Gv]
survivin mRNA induction compared to solvent control (survivin mRNA): 2.3 fold | Number of TUNEL-positive cells in retina [1]: 10.4 ± 1.4 /200 μm | I/R-induced retinal cell apoptosis (TUNEL staining), in words [1]: reduced the retinal cell apoptosis induced by I/R | mRNA expression of TNF-α, in words (TNF-α mRNA): apparently repressed the mRNA expression of TNF-α and IL-1β | mRNA expression of IL-1β, in words (IL-1β mRNA): apparently repressed the mRNA expression of TNF-α and IL-1β

NH2-The-Leu-Gly-Ala-Glu-Gln-COOH (TLGAEQ; not fully specified (N-terminus, C-terminus); printed as NH2-The-Leu-Gly-Ala-Glu-Gln-COOH) [6-mer St]
survivin mRNA induction, in words (survivin mRNA): severely impaired the survivin mRNA induction | Number of TUNEL-positive cells in retina [1]: 21.8 ± 1.8 /200 μm | I/R-induced retinal cell apoptosis (TUNEL staining), in words [1]: had no such effect | therapeutic effect on corneal fluorescein staining, in words [2]: had no therapeutic effect
